# Source: ChEMBL document CHEMBL3885881, “DrugMatrix”
# Species on record: Rattus norvegicus
# Assay: DrugMatrix - Regimen: Daily Repeat
# Format: toxicity, organism-based, Sprague-Dawley
# Set-up: regimen Daily Repeat, gender Male, age 6-8 weeks
# Settings: in vivo, po, route oral GAVAGE, vehicle .5 % CMC; for ABSOLUTE BASOPHIL / ABSOLUTE EOSINOPHIL / ABSOLUTE LYMPHOCYTE / ABSOLUTE MONOCYTE / ABSOLUTE SEGMENTED NEUTROPHIL / BASOPHIL / EOSINOPHIL / ERYTHROCYTE COUNT / HEMATOCRIT / HEMOGLOBIN / LEUKOCYTE COUNT / LYMPHOCYTE / MEAN CORPUSCULAR HEMOGLOBIN / MEAN CORPUSCULAR HEMOGLOBIN CONCENTRATION / MEAN CORPUSCULAR VOLUME / MONOCYTE / NEUTROPHIL / NUCLEATED RED BLOOD CELLS / PLATELET COUNT: tissue Blood; for ALANINE AMINOTRANSFERASE / ALBUMIN / ALKALINE PHOSPHATASE / ASPARTATE AMINOTRANSFERASE / BLOOD UREA NITROGEN / CARBON DIOXIDE / CHLORIDE / CHOLESTEROL / CREATINE PHOSPHOKINASE / CREATININE / GLUCOSE / LACTATE DEHYDROGENASE / LIPASE / PHOSPHORUS / POTASSIUM / SODIUM / TOTAL BILIRUBIN / TOTAL PROTEIN / URIC ACID: tissue Plasma
# [1] = 0 mg/kg, 72 h, dose level Control, time 3 day
# [2] = 0 mg/kg, 120 h, dose level Control, time 5 day
# [3] = 150 mg/kg, 72 h, dose level Low, time 3 day
compound,measurement,setting,value
C[C@@H](O)[C@H]1C(=O)N2C(C(=O)O)=C(S[C@@H]3CN[C@H](C(=O)N(C)C)C3)[C@H](C)[C@H]12 [MEROPENEM],ABSOLUTE BASOPHIL,[1],0 CELLS/uL
same,ABSOLUTE EOSINOPHIL,[1],222.83 CELLS/uL
same,ABSOLUTE LYMPHOCYTE,[1],14453 CELLS/uL
same,ABSOLUTE MONOCYTE,[1],0 CELLS/uL
same,ABSOLUTE SEGMENTED NEUTROPHIL,[1],1490.83 CELLS/uL
same,BASOPHIL,[1],0%
same,EOSINOPHIL,[1],1.33%
same,ERYTHROCYTE COUNT,[1],5.76 x10E6/uL
same,HEMATOCRIT,[1],36.52%
same,HEMOGLOBIN,[1],13.45 G/DL
same,LEUKOCYTE COUNT,[1],16.17 x10E3/uL
same,LYMPHOCYTE,[1],89.33%
same,MEAN CORPUSCULAR HEMOGLOBIN,[1],23.37 pg
same,MEAN CORPUSCULAR HEMOGLOBIN CONCENTRATION,[1],36.85 G/DL
same,MEAN CORPUSCULAR VOLUME,[1],63.47 fL
same,MONOCYTE,[1],0%
same,NEUTROPHIL,[1],9.33%
same,NUCLEATED RED BLOOD CELLS,[1],0 /100WBC
same,PLATELET COUNT,[1],1239.5 x10E3/uL
same,ALANINE AMINOTRANSFERASE,[1],43.83 u/L
same,ALBUMIN,[1],4.27 G/DL
same,ALKALINE PHOSPHATASE,[1],398.83 u/L
same,ASPARTATE AMINOTRANSFERASE,[1],81.17 u/L
same,BLOOD UREA NITROGEN,[1],17.67 mg/dL
same,CARBON DIOXIDE,[1],27.5 mmol/L
same,CHLORIDE,[1],99.17 MEQ/L
same,CHOLESTEROL,[1],74 mg/dL
same,CREATINE PHOSPHOKINASE,[1],331.5 u/L
same,CREATININE,[1],0.2 mg/dL
same,GLUCOSE,[1],171.33 mg/dL
same,LACTATE DEHYDROGENASE,[1],241.67 u/L
same,LIPASE,[1],9.5 u/L
same,PHOSPHORUS,[1],12.25 mg/dL
same,POTASSIUM,[1],6.33 MEQ/L
same,SODIUM,[1],141.28 MEQ/L
same,TOTAL BILIRUBIN,[1],0.15 mg/dL
same,TOTAL PROTEIN,[1],5.98 G/DL
same,URIC ACID,[1],1.63 mg/dL
same,ABSOLUTE BASOPHIL,[2],0 CELLS/uL
same,ABSOLUTE EOSINOPHIL,[2],148.67 CELLS/uL
same,ABSOLUTE LYMPHOCYTE,[2],16020.5 CELLS/uL
same,ABSOLUTE MONOCYTE,[2],29.17 CELLS/uL
same,ABSOLUTE SEGMENTED NEUTROPHIL,[2],1468.33 CELLS/uL
same,BASOPHIL,[2],0%
same,EOSINOPHIL,[2],1%
same,ERYTHROCYTE COUNT,[2],5.78 x10E6/uL
same,HEMATOCRIT,[2],35.77%
same,HEMOGLOBIN,[2],13.4 G/DL
same,LEUKOCYTE COUNT,[2],17.67 x10E3/uL
same,LYMPHOCYTE,[2],90.5%
same,MEAN CORPUSCULAR HEMOGLOBIN,[2],23.22 pg
same,MEAN CORPUSCULAR HEMOGLOBIN CONCENTRATION,[2],37.47 G/DL
same,MEAN CORPUSCULAR VOLUME,[2],61.92 fL
same,MONOCYTE,[2],0.17%
same,NEUTROPHIL,[2],8.33%
same,NUCLEATED RED BLOOD CELLS,[2],0.17 /100WBC
same,PLATELET COUNT,[2],1255.5 x10E3/uL
same,ALANINE AMINOTRANSFERASE,[2],46.5 u/L
same,ALBUMIN,[2],4.38 G/DL
same,ALKALINE PHOSPHATASE,[2],336 u/L
same,ASPARTATE AMINOTRANSFERASE,[2],76.5 u/L
same,BLOOD UREA NITROGEN,[2],20 mg/dL
same,CARBON DIOXIDE,[2],27.5 mmol/L
same,CHLORIDE,[2],101 MEQ/L
same,CHOLESTEROL,[2],71.33 mg/dL
same,CREATINE PHOSPHOKINASE,[2],231.83 u/L
same,CREATININE,[2],0.37 mg/dL
same,GLUCOSE,[2],168.83 mg/dL
same,LACTATE DEHYDROGENASE,[2],174 u/L
same,LIPASE,[2],8.67 u/L
same,PHOSPHORUS,[2],11.48 mg/dL
same,POTASSIUM,[2],6.82 MEQ/L
same,SODIUM,[2],143.8 MEQ/L
same,TOTAL BILIRUBIN,[2],0.2 mg/dL
same,TOTAL PROTEIN,[2],5.98 G/DL
same,URIC ACID,[2],1.83 mg/dL
same,ABSOLUTE BASOPHIL,[3],0 CELLS/uL
same,ABSOLUTE EOSINOPHIL,[3],455.67 CELLS/uL
same,ABSOLUTE LYMPHOCYTE,[3],14286.67 CELLS/uL
same,ABSOLUTE MONOCYTE,[3],45.33 CELLS/uL
same,ABSOLUTE SEGMENTED NEUTROPHIL,[3],1912.33 CELLS/uL
same,BASOPHIL,[3],0%
same,EOSINOPHIL,[3],2.67%
same,ERYTHROCYTE COUNT,[3],5.53 x10E6/uL
same,HEMATOCRIT,[3],35.53%
same,HEMOGLOBIN,[3],13.27 G/DL
same,LEUKOCYTE COUNT,[3],16.7 x10E3/uL
same,LYMPHOCYTE,[3],85.67%
same,MEAN CORPUSCULAR HEMOGLOBIN,[3],24.03 pg
same,MEAN CORPUSCULAR HEMOGLOBIN CONCENTRATION,[3],37.37 G/DL
same,MEAN CORPUSCULAR VOLUME,[3],64.3 fL
same,MONOCYTE,[3],0.33%
same,NEUTROPHIL,[3],11.33%
same,NUCLEATED RED BLOOD CELLS,[3],0 /100WBC
same,PLATELET COUNT,[3],1310.33 x10E3/uL
same,ALANINE AMINOTRANSFERASE,[3],52.67 u/L
same,ALBUMIN,[3],4.33 G/DL
same,ALKALINE PHOSPHATASE,[3],370.33 u/L
same,ASPARTATE AMINOTRANSFERASE,[3],85.67 u/L
same,BLOOD UREA NITROGEN,[3],16.33 mg/dL
same,CARBON DIOXIDE,[3],27 mmol/L
same,CHLORIDE,[3],101.33 MEQ/L
same,CHOLESTEROL,[3],78.33 mg/dL
same,CREATINE PHOSPHOKINASE,[3],300.67 u/L
same,CREATININE,[3],0.22 mg/dL
same,GLUCOSE,[3],154.33 mg/dL
same,LACTATE DEHYDROGENASE,[3],406.33 u/L
same,LIPASE,[3],9 u/L
same,PHOSPHORUS,[3],11.9 mg/dL
same,POTASSIUM,[3],6.59 MEQ/L
same,SODIUM,[3],143 MEQ/L
same,TOTAL BILIRUBIN,[3],0.2 mg/dL
same,TOTAL PROTEIN,[3],6.03 G/DL
same,URIC ACID,[3],2 mg/dL
